Measurements: ChEMBL document CHEMBL2203251, “Discovery of two clinical histamine H(3) receptor antagonists: trans-N-ethyl-3-fluoro-3-[3-fluoro-4-(pyrrolidinylmethyl)phenyl]cyclobutanecarboxamide (PF-03654746) and trans-3-fluoro-3-[3-fluoro-4-(pyrrolidin-1-ylmethyl)phenyl]-N-(2-methylpropyl)cyclobutanecarboxamide (PF-03654764)” (J Med Chem, 2011)

Experiments:
in vivo [1] = conditions: Sprague-Dawley, rat, po
Description: Oral bioavailability in Sprague-Dawley rat

in vivo [2] = conditions: Sprague-Dawley, rat, po; remark: listed apart in the source
Description: Cmax in po dosed Sprague-Dawley rat administered for 14 days

in vivo [3] = conditions: beagle, dog, po
Description: Cmax in po dosed beagle dog administered for 7 days

in vivo [4] = conditions: Sprague-Dawley, rat, plasma, po
Description: AUC (0 to 24 hrs) in po dosed Sprague-Dawley rat administered for 14 days

in vivo [5] = conditions: Sprague-Dawley, rat, po; remark: listed apart in the source
Description: Tmax in po dosed Sprague-Dawley rat administered for 4 days

Homo sapiens [6] = species on record: Homo sapiens; assay: Selectivity ratio of Ki for human histamine H2 receptor to Ki for human histamine H3 receptor
in vivo [7] = conditions: Sprague-Dawley, rat, po; remark: listed apart in the source
Description: Toxicity in po dosed Sprague-Dawley rat administered for 14 days

in vivo [8] = conditions: beagle, dog, po; remark: listed apart in the source
Description: Tmax in po dosed beagle dog administered for 7 days

in vivo [9] = conditions: beagle, dog, po; remark: listed apart in the source
Description: Toxicity in po dosed beagle dog administered for 7 days

Histamine H3 receptor [10] = molecular target: T1, Histamine H3 receptor (Homo sapiens, UniProt Q9Y5N1)
Description: Antagonist activity at human histamine H3 receptor expressed in human HEK293 cells assessed as inhibition of forskolin-induced cAMP release pretreated 10 mins prior forskolin stimulation measured after 4.5 hrs by spectrofluorimetric analysis

Histamine H3 receptor [11] = molecular target: T2, Histamine H3 receptor (Rattus norvegicus, UniProt Q9QYN8)
Description: Antagonist activity at rat histamine H3 receptor expressed in human HEK293 cells assessed as inhibition of forskolin-induced cAMP release pretreated 10 mins prior forskolin stimulation measured after 4.5 hrs by spectrofluorimetric analysis

in vitro [12] = conditions: human, Caco-2
Description: Permeability across apical to basolateral side in human Caco2 cells at 2 uM

Histamine H3 receptor [13] = molecular target: T2, Histamine H3 receptor; remark: listed apart in the source
Description: Displacement of [3H]-n-alpha-methylhistamine from rat histamine H3 receptor homogenate after 60 mins by scintillation counting

Canis familiaris [14] = assay: Toxicity in beagle dog assessed as convulsion at 30 mg/kg, po administered for 7 days measured on day 3; type: organism-based, Canis lupus familiaris; set-up: dose 30 mg/kg, route oral; conditions: in vivo, 168 h
Homo sapiens [15] = species on record: Homo sapiens; assay: Selectivity ratio of Ki for human histamine H4 receptor to Ki for human histamine H3 receptor
Homo sapiens [16] = species on record: Homo sapiens; assay: Selectivity ratio of Ki for human histamine H1 receptor to Ki for human histamine H3 receptor
Rattus norvegicus [17] = assay: Toxicity in Sprague-Dawley rat assessed as decrease in food intake at 300 mg/kg, po administered for 14 days; type: organism-based; set-up: dose 300 mg/kg, route oral; conditions: in vivo, 336 h
in vivo [18] = conditions: beagle, dog, plasma, po
Description: AUC (0 to 24 hrs) in po dosed beagle dog administered for 7 days

Rattus norvegicus [19] = assay: Toxicity in Sprague-Dawley rat assessed as decrease in body weight at 300 mg/kg, po administered for 14 days; type: organism-based; set-up: dose 300 mg/kg, route oral; conditions: in vivo, 336 h
Liver microsomes = conditions: human
Description: Unbound intrinsic clearance in human liver microsomes

in vitro [20] = conditions: human, liver microsomes
Description: Half life in human liver microsomes

[21] = AUC in Sprague-Dawley rat at 300 mg/kg, po administered for 14 days; type: ADME, organism-based; set-up: dose 300 mg/kg, route oral; conditions: plasma
[22] = Ratio of drug uptake in brain to plasma of Sprague-Dawley rat; type: ADME; conditions: read-out: BPR
Histamine H3 receptor [23] = molecular target: T1, Histamine H3 receptor; remark: listed apart in the source
Description: Displacement of [3H]-n-alpha-methylhistamine from human histamine H3 receptor homogenate after 60 mins by scintillation counting

Rattus norvegicus [24] = assay: Toxicity in Sprague-Dawley rat assessed as salivation at >= 100 mg/kg, po administered for 14 days; type: organism-based; set-up: dose 100 mg/kg, route oral; conditions: in vivo, 336 h
MDR1 (human) = assay: in vitro; conditions: dog, MDCK-MDR1
Description: Efflux ratio of permeability across basal to apical side over apical to basolateral side in dog MDCK cells expressing human MDR1

in vitro [25] = conditions: human, plasma
Description: Fraction unbound in human plasma

[26] = human, thle, 24 h
Description: Toxicity in human THLE cells assessed as drug-induced phospholipid accumulation after 24 hrs by Hoechst staining-based microscopic analysis

in vivo [27] = conditions: Sprague-Dawley, rat, po; remark: listed apart in the source
Description: Tmax in po dosed Sprague-Dawley rat administered for 14 days

in vitro [28] = conditions: rat, plasma
Description: Fraction unbound in rat plasma

[29] = AUC in Sprague-Dawley rat at 5 mg/kg, po administered for 4 days; type: ADME, organism-based; set-up: dose 5 mg/kg, route oral; conditions: plasma
[30] = AUC (0 to 24 hrs) in po dosed Sprague-Dawley rat administered for 4 days; type: ADME, organism-based; set-up: time < 24 hr, route oral; conditions: plasma
[31] = Apparent permeability across apical to basolateral side in MDCK cells at 2 uM; type: ADME, cell-based, Canis lupus familiaris; conditions: dog
[32] = AUC in Sprague-Dawley rat at >[…] mg/kg, po administered for 4 days; type: ADME, organism-based; conditions: plasma, 50 mg/kg
[33] = Toxicity in po dosed Sprague-Dawley rat administered for 4 days; type: organism-based; conditions: in vivo
Rattus norvegicus [34] = assay: Toxicity in Sprague-Dawley rat assessed as compound-induced phospholipidosis in kidney at >= 50 mg/kg, po administered for 4 days; type: organism-based; set-up: dose 50 mg/kg, route oral; conditions: in vivo, 96 h
Canis familiaris [35] = assay: Toxicity in beagle dog assessed as compound-induced cadiomyocyte vacuole formation at 10 mg/kg, po administered for 7 days; type: organism-based, Canis lupus familiaris; set-up: dose 10 mg/kg, route oral; conditions: in vivo, 168 h
Canis familiaris [36] = assay: Toxicity in beagle dog assessed as compound-induced cadiomyocyte vacuole formation at 25 mg/kg, po administered for 7 days; type: organism-based, Canis lupus familiaris; set-up: dose 25 mg/kg, route oral; conditions: in vivo, 168 h
[37] = Genotoxicity in micronucleus
Rattus norvegicus [38] = assay: Toxicity in Sprague-Dawley rat assessed as compound-induced phospholipidosis at 5 to 30 mg/kg, po administered for 14 days; type: organism-based; set-up: dose 5-30 mg/kg, route oral; conditions: in vivo, 336 h
[39] = molecular target: Voltage-gated inwardly rectifying potassium channel KCNH2 (Homo sapiens, UniProt Q12809); assay: Inhibition of human Erg expressed in human HEK293 cells; type: cell-based
Rattus norvegicus [40] = assay: Toxicity in Sprague-Dawley rat assessed as compound-induced phospholipidosis in lung at >= 50 mg/kg, po administered for 4 days; type: organism-based; set-up: dose 50 mg/kg, route oral; conditions: in vivo, 96 h
[41] = Cmax in Sprague-Dawley rat at 400 mg/kg, po administered for 4 days; type: ADME, organism-based; set-up: dose 400 mg/kg, route oral; conditions: in vivo
Rattus norvegicus [42] = assay: Toxicity in Sprague-Dawley rat assessed as compound-induced phospholipidosis at 30 mg/kg, po administered for 14 days; type: organism-based; set-up: dose 30 mg/kg, route oral; conditions: in vivo, 336 h
Rattus norvegicus [43] = assay: Toxicity in Sprague-Dawley rat assessed as mortality at 400 mg/kg, po administered for 4 days; type: organism-based; set-up: dose 400 mg/kg, route oral; conditions: in vivo, 96 h
[44] = Cmax in po dosed Sprague-Dawley rat administered for 4 days; type: ADME, organism-based; set-up: route oral; conditions: in vivo

T1 sequence (Q9Y5N1 whole entry): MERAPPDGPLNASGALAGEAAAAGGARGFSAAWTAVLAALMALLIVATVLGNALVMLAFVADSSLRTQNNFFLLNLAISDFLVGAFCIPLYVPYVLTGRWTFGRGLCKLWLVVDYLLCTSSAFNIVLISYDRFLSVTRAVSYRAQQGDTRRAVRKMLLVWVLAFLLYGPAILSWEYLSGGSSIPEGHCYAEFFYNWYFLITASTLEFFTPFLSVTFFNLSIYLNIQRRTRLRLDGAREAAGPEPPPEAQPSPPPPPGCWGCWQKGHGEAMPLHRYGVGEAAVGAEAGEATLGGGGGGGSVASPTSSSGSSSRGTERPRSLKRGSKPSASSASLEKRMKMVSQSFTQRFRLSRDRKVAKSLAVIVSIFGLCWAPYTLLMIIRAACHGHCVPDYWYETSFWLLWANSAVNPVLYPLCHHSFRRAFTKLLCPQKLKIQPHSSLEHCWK
T2 sequence (Q9QYN8 whole entry): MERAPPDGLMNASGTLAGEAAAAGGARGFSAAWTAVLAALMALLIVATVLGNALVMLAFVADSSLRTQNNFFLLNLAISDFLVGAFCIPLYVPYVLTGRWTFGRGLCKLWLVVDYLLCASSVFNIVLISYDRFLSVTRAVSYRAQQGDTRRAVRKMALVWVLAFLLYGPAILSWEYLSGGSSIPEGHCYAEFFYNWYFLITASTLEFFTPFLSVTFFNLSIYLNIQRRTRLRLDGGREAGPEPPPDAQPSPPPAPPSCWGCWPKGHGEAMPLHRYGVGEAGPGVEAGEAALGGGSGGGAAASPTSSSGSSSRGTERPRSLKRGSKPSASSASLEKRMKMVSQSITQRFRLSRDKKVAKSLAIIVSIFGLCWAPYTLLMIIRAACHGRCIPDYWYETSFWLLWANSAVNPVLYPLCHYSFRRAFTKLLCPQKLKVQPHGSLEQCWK
Chain of Voltage-gated inwardly rectifying potassium channel KCNH2 (Q12809 whole entry): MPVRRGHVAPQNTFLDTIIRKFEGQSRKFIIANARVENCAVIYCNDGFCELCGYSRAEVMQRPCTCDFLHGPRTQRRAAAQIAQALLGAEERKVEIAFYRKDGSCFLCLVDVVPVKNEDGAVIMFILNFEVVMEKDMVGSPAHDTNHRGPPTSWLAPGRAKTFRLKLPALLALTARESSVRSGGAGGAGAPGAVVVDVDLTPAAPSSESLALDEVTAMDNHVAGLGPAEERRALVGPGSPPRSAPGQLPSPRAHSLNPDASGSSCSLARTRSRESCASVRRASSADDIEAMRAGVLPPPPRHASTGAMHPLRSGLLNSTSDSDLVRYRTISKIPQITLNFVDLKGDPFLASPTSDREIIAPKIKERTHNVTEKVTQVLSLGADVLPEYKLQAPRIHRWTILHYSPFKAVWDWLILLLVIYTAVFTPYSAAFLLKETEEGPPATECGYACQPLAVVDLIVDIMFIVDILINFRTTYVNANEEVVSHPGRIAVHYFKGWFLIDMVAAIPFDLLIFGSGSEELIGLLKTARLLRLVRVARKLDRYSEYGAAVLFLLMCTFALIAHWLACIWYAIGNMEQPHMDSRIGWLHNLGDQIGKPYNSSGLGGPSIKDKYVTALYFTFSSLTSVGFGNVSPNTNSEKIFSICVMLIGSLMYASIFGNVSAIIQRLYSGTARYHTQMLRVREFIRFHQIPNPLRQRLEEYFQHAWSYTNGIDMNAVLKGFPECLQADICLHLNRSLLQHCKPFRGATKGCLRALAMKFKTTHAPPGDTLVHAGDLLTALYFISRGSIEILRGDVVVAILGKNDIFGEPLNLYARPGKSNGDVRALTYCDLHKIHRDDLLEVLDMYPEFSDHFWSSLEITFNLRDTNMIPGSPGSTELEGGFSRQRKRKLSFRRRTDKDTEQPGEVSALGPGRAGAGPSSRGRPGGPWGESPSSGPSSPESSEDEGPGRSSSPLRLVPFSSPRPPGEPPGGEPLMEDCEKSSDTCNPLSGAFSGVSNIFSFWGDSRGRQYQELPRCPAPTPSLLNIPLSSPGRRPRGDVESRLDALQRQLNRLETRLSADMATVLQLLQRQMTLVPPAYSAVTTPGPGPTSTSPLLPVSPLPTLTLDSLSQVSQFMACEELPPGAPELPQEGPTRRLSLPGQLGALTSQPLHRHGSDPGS
Description for physchem: Dissociation constant, pKa of the compound

SMILES	Cmax at 336 h (in vivo [2])	Cmax at 168 h (in vivo [3])	AUC at 24 h (in vivo [4])	Tmax at 96 h (in vivo [5])	MTD at 336 h (in vivo [7])	Tmax at 168 h (in vivo [8])	MTD at 168 h (in vivo [9])	Ki (Histamine H3 receptor [10])	pKa (physchem)	Ki (Histamine H3 receptor [11])	Papp A→B at 2 µM (in vitro [12])	Ki (Histamine H3 receptor [13])	AUC at 24 h (in vivo [18])	CL free (Liver microsomes)	half-life (in vitro [20])	Ki (Histamine H3 receptor [23])	efflux ratio (MDR1 (human))	fraction unbound (in vitro [25])	Tmax at 336 h (in vivo [27])	fraction unbound (in vitro [28])	also measured
CCNC(=O)[C@H]1C[C@@](F)(c2ccc(CN3CCCC3)c(F)c2)C1 [PF-03654746]	43.5 µM	13 µM	189000 ng·h/mL	30 min	30 mg/kg	30 min	≥ 15 mg/kg	1.7 nM	9.2	8.9 nM	44.7 ×10⁻⁶ cm/s	37 nM	18900 ng·h/mL	< 5 mL/min/kg	> 120 min	2.3 nM	1.1	0.66	30 min	0.7	bioavailability (in vivo [1]): 25.9%; Ratio Ki (Homo sapiens [6]): > 1000; Activity (Canis familiaris [14]): Toxic; Ratio Ki (Homo sapiens [15]): > 1000; Ratio Ki (Homo sapiens [16]): > 1000; Activity (Rattus norvegicus [17]): Toxic; Activity (Rattus norvegicus [19]): Toxic; AUC at 336 h [21]: 189000 ng·h/mL; Kp [22]: 2.1; Activity (Rattus norvegicus [24]): Toxic; MED [26]: 302.4 µM
CN(C)Cc1ccc(-c2ccc(CN(C)C)cc2)cc1	–	–	–	–	–	–	–	–	–	–	–	9.3 nM	–	219 mL/min/kg	–	1.3 nM	–	–	–	–	–
c1cc([C@H]2C[C@@H](CN3CCOCC3)C2)ccc1CN1CCCC1	5 µM	0.148 µM	15500 ng·h/mL	30 min	≥ 30 mg/kg	30 min	< 10 mg/kg	0.89 nM	7.7	3.5 nM	8.2 ×10⁻⁶ cm/s	7.7 nM	740 ng·h/mL	< 8 mL/min/kg	> 120 min	2.2 nM	< 0.95	0.78	30 min	0.72	AUC at 96 h [29]: 1240 ng·h/mL; AUC at 24 h [30]: 1240 ng·h/mL; Papp A→B at 2 µM [31]: > 10 ×10⁻⁶ cm/s; AUC at 96 h [32]: 17400 ng·h/mL; MTD at 96 h [33]: ≥ 5 mg/kg; Activity (Rattus norvegicus [34]): Toxic; Activity (Canis familiaris [35]): Toxic; Activity (Canis familiaris [36]): Toxic; Activity [37]: Non-toxic; Activity (Rattus norvegicus [38]): Toxic; IC50 [39]: 300000 nM; Activity (Rattus norvegicus [40]): Toxic; Cmax [41]: 3920 ng/mL; Activity (Rattus norvegicus [42]): Non-toxic; Activity (Rattus norvegicus [43]): Toxic; Cmax [44]: 0.302 µM
